“Also recorded” adds a separate entry of the source.
Columns and labels:
[1] = test system: Saos-2 osteosarcoma xenograft; assay: Saos-2 xenograft tumor growth (caliper, CT); type: in vivo, NSG male mice; conditions: 80 mg/kg oral gavage every other day for 20 days; end of treatment
Experimental: Animal experiments were executed in accordance with a protocol approved by the McGill Institutional Animal Care Committee (McGill University Health Centre Research Institute and McGill University, Montreal, Canada). Xenografts of the tumors were obtained via unilateral and subcutaneous injection (5 × 10^6 cells in 100 µL of a PBS1x solution) into immunodeficient NSG male mice (N = 28; 8 weeks old; weight = 30 g; Charles River, Canada). The mice were maintained at optimal temperature (24 °C) and relative humidity (50%) on a 12/12-light/dark cycle with free access to water and food. The mice were monitored clinically every day; body weights were recorded and tumor volumes were measured with a caliper using the formula 4/3 π (length/2) (width/2)^2 every other day. Once tumors reached 68 mm^3, the mice were randomly divided into 4 groups: 1 was treated with ZR2002 (N = 7), another was treated with JS84 (N = 7), another was treated with JS61 (N = 7) and the last was treated with a vehicle (N = 7). […]
All PET/CT experiments were performed using nanoScan PET/CT for small animals (Mediso Medical Imaging Systems, Budapest, Hungary). […] The mice were kept awake for 45 min before the scans and weighed, and glycemia was measured in blood drawn from the caudal artery. […] Temperature and heart rate were monitored throughout the procedure using the Mediso system. […] The CT volume-of-interest (VOI) was drawn manually on the CT and PET co-registered images. ^18F-FDG accumulation was quantified as the mean standardized uptake value (SUV) between 20 and 30 min post-injection in a 3D volume-of-interest (VOI), which was named the metabolic volume (MV), delineated semi-automatically with iso-contours at a 40% threshold of the maximal SUV [30] in the tumor on PET/CT fusion slices using the PMOD software package v3.6 (PMOD Technologies Ltd., Zürich, Switzerland). In addition, another tumor volume-based parameter, called total lesion glycolysis (TLG), was calculated according to the product between the MV and the mean SUV. […]

[2] = test system: Saos-2 osteosarcoma xenograft; assay: 18F-FDG PET/CT imaging of tumors; type: in vivo, NSG male mice; conditions: day 22, 80 mg/kg oral; for total lesion glycolysis (TLG): FDG-PET
Experimental: All PET/CT experiments were performed using nanoScan PET/CT for small animals (Mediso Medical Imaging Systems, Budapest, Hungary). The radiotracer 2′-deoxy-2′-[^18F]fluoro-D-glucose (^18F-FDG) was inoculated via 1 bolus injection in the tail vein (5.3 MBq in 100 µL). All animals were starved from the night before the experiment. The mice were kept awake for 45 min before the scans and weighed, and glycemia was measured in blood drawn from the caudal artery. Afterward, each mouse was placed in the scanner, with the […] at the center of the field of view. Each PET/CT session consisted of a 30 min PET emission scan followed by a 10 min CT transmission scan. The PET/CT scans were conducted under anesthesia (isoflurane 2%; medical air (0.6 L/min)) delivered via a nose cone. Temperature and heart rate were monitored throughout the procedure using the Mediso system. Images were reconstructed using expectation maximization (EM) and ordered subset expectation maximization (OSEM), normalized, and corrected for scatter, dead time and decay. The CT volume-of-interest (VOI) was drawn manually on the CT and PET co-registered images. ^18F-FDG accumulation was quantified as the mean standardized uptake value (SUV) between 20 and 30 min post-injection in a 3D volume-of-interest (VOI), which was named the metabolic volume (MV), delineated semi-automatically with iso-contours at a 40% threshold of the maximal SUV [30] in the tumor on PET/CT fusion slices using the PMOD software package v3.6 (PMOD Technologies Ltd., Zürich, Switzerland). In addition, another tumor volume-based parameter, called total lesion glycolysis (TLG), was calculated according to the product between the MV and the mean SUV. Furthermore, at the end of the imaging sessions, the tumors were resected and processed for ex vivo analysis.

Structure (SMILES)	tumor size / growth inhibition vs vehicle (caliper and CT scan) [1]	CT tumor volume vs vehicle [2]	metabolic volume (MV) vs vehicle, FDG-PET [2]	total lesion glycolysis (TLG) [2]
ClCCN(CCCl)c1ccc2ncnc(Nc3cccc(Br)c3)c2c1 [JS61]	no significant growth inhibition	–	–	–
CN(CCCl)c1ccc2ncnc(Nc3cccc(Br)c3)c2c1 [JS84]	no significant growth inhibition; also recorded: minor antitumor activity	not statistically different	not statistically different	reduction in TLG
ClCCNc1ccc2ncnc(Nc3cccc(Br)c3)c2c1 [ZR2002]	significantly reduced	significant reduction	significant reduction	reduction in TLG

— paper PMC10046901, “Molecular Analysis of the Superior Efficacy of a Dual Epidermal Growth Factor Receptor (EGFR)-DNA-Targeting Combi-Molecule in Comparison with Its Putative Prodrugs 6-Mono-Alkylamino- and 6,6-Dialkylaminoquinazoline in a Human Osteosarcoma Xenograft Model” (Cells, 2023)
